Data: patent US10059689B2, “Substituted heteroaryl compounds and methods of use” (Sunshine Lake Pharma Co., Ltd., priority 2014, dated 2018)

How the values were obtained:
JAK2 (h) = molecular target: T1, JAK2 (h) (Homo sapiens, UniProt O60674); assay: JAK2 (h) kinase assay; format: biochemical
T1 construct: purchased Millipore UK Ltd (contract assay service)
Protocol: (§1) The above assay procedure can be used to determine the IC50 for inhibition and/or the inhibition constant, Ki. The IC50 is defined as the concentration of compound required to reduce the enzyme activity by 50% under the condition of the assay. The IC50 value is estimated by preparing a 10 point curve using a ½ log dilution series (for example, a typical curve may be prepared using the following compound concentrations: 3 μM, 1 μM, 0.3 μM, 0.1 μM, 0.03 μM, 0.01 μM, 0.003 μM, 0.001 μM, 0.0003 μM and 0 μM).
JAK2 (h) is incubated with 8 mM MOPS pH 7.0, 0.2 mM EDTA, 100 μM […], 10 mM MgAcetate and [γ-^33P-ATP] (specific activity approx. 500 cpm/pmol, concentration as required). The reaction is initiated by the addition of the MgATP mix. After incubation for 40 minutes at room temperature, the reaction is stopped by the addition of 3% phosphoric acid solution. 10 μL of the reaction is then spotted onto a P30 filtermat and washed three times for 5 minutes in 75 mM phosphoric acid and once in methanol prior to drying and scintillation counting.
(§2) The kinase assays described herein were performed at Millipore UK Ltd, Dundee Technology Park, Dundee DD2 1SW, UK.

[1] = Compound stability in rat liver microsomes; format: in vitro ADME; conditions: for half-life: pH 7.4, 37° C., NADPH, read-out: Rat T1/2; for CLint scaled: pH 7.4, in vivo CLint extrapolated
Protocol: (§3) Human or rat liver microsomes incubations were conducted in duplicate in polypropylene tubes. The typical incubation mixtures consisted of human or rat liver microsomes (0.5 mg protein/mL), compounds of interest (5 μM) and NADPH (1.0 mM) in a total volume of 200 μL potassium phosphate buffer (PBS, 100 mM, pH 7.4). Compounds were dissolved in DMSO and diluted with PBS such that the final concentration of DMSO was 0.05%. The enzymatic reactions were commenced with the addition of protein after a 3-min preincubation and incubated in a water bath open to the air at 37° C. Reactions were terminated at various time points (0, 5, 10, 15, 30, 60 min) by adding equal volume of ice-cold acetonitrile. The samples were stored at −80° C. until LC/MS/MS assays.
(§4) The concentrations of compounds in the incubation mixtures of human or rat liver microsomes were determined by a LC/MS/MS method. The ranges of the linearity in the concentration range were determined for each tested compounds.
(§5) A parallel incubation was performed using denatured microsomes as the negative control, and reactions were terminated at various time points (0, 15, 60 min) after incubation at 37° C.
(§6) Verapamil (1 μM) was selected as the positive control, and reactions were terminated at various time points (0, 5, 10, 15, 30, 60 min) after incubation at 37° C. Both positive and negative control samples were included in each assay to ensure the integrity of the microsomal incubation system.
(§7) In addition, the stability date of compound in human and rat liver microsomes was also obtained through the following method. Human or rat liver microsomes incubations were conducted in duplicate in polypropylene tubes. The typical incubation mixtures consisted of human or rat liver microsomes (0.5 mg protein/mL), compounds of interest (1.5 μM) and EDTA (1.0 mM) in a total volume of 30 μL potassium phosphate buffer (PBS, 100 mM, pH 7.4). Compounds were dissolved in DMSO and diluted with PBS such that the final concentration of DMSO was 0.2%. The enzymatic reactions were commenced with the addition of 15 μL NADPH (final concentration: 2 mM) after a 10-min preincubation and incubated in a water bath open to the air at 37° C. Reactions were terminated at various time points (0, 15, 30, 60 min) by adding 135 μL acetonitrile (contain IS). The samples were centrifuged at 4000 rpm for 10 min to remove protein, the supernatant was stored at −80° C. until LC/MS/MS assays. Ketanserin (1 μM) was selected as the positive control, and reactions were terminated at various time points (0, 15, 30, 60 min) after incubation at 37° C. Both positive and negative control samples were included in each assay to ensure the integrity of the microsomal incubation system.
(§8) The concentrations of compounds in human or rat liver microsome incubations were plotted as a percentage of the relevant zero time point control for each reaction. The in vivo CLint were extrapolated (ref.: Naritomi, Y.; Terashita, S.; Kimura, S.; Suzuki, A.; Kagayama, A.; and Sugiyama, Y.; Prediction of human hepatic clearance from in vivo animal experiments and in vitro metabolic studies with liver microsomes from animals and humans. Drug Metab. Dispos., 2001, 29: 1316-1324).

JAK1 (h) = molecular target: T2, JAK1 (h) (Homo sapiens, UniProt P23458); assay: JAK1 (h) kinase assay; format: biochemical
T2 construct: purchased Millipore UK Ltd (contract assay service)
Protocol: as §1
JAK1 (h) is incubated with 20 mM Tris/HCl pH 7.5, 0.2 mM EDTA, 500 μM GEEPLYWSFPAKKK, 10 mM MgAcetate and [γ-^33P-ATP] (specific activity approx. 500 cpm/pmol, concentration as required). The reaction is initiated by the addition of the MgATP mix. After incubation for 40 minutes at room temperature, the reaction is stopped by the addition of 3% phosphoric acid solution. 10 μL of the reaction is then spotted onto a P30 filtermat and washed three times for 5 minutes in 75 mM phosphoric acid and once in methanol prior to drying and scintillation counting.
as §2

[2] = Compound stability in human liver microsomes; format: in vitro ADME; conditions: for half-life: pH 7.4, 37° C., NADPH, read-out: Human T1/2; for CLint scaled: pH 7.4, in vivo CLint extrapolated
Protocol: as §3, §4, §5, §6, §7, §8

[3] = Pharmacokinetics after intravenous and oral administration in rats; format: in vivo; conditions: for clearance (CL) / AUC(0-t) / half-life / Vd: iv dosing, 1 mg/kg; for F: oral bioavailability; for AUC(0-t) / half-life / Vd: rat, plasma; for Vd: read-out: Vss
Protocol: The LC/MS/MS system used in the analysis consists of an Agilent 1200 Series vacuum degasser, binary pump, well-plate autosampler, thermostatted column compartment, the Agilent G6430 Triple Quadrupole Mass Spectrometer with an electrosprayionization (ESI) source. Quantitative analysis was carried out using MRM mode. The parameters for MRM transitions are in the Table A.
An Agilent XDB-C18, 2.1×30 mm, 3.5 μM column was used for the analysis. 5 μL of the samples were injected. Analysis condition: The mobile phase was 0.1% formic acid in water (A) and 0.1% formic acid in methanol (B). The flow rate was 0.4 mL/min. And the gradient of Mobile phase was in the Table B.
Alternatively, an Agilent 6330 series LC/MS/MS spectrometer equipped with G1312A binary pumps, a G1367A autosampler and a G1314C UV detector were used in the analysis. An ESI source was used on the LC/MS/MS spectrometer. The analysis was done in positive ion mode as appropriate and the MRM transition for each analyte was optimized using standard solution. A Capcell MP-C18 100×4.6 mm I.D., […] column (Phenomenex, Torrance, Calif., USA) was used during the analysis. The mobile phase was 5 mM ammonia acetate, 0.1% MeOH in water (A): 5 mM ammonia acetate, 0.1% MeOH in acetonitrile (B) (70:30, v/v). The flow rate was 0.6 mL/min. Column was maintained at ambient temperature. 20 μL of the samples were injected.
The compounds disclosed herein are assessed in pharmacokinetic studies in mice, rats, dogs or monkeys. The compounds are administered as a water solution, 2% HPMC+1% TWEEN®80 in water solution, 5% DMSO+5% solutol in saline, 4% MC suspension or capsule. For the intravenous administration, the animals are generally given at 1 or 2 mg/kg dose. For the oral (p.o.) dosing, mice and rats are generally given 5 or 10 mg/kg dose, and dogs and monkeys are generally given 10 mg/kg dose. The blood samples (0.3 mL) are drawn at 0.25, 0.5, 1.0, 2.0, 3.0, 4.0, 6.0, 8.0, 12 and 24 h time points or 0.083, 0.25, 0.5, 1.0, 2.0, 4.0, 6.0, 8.0 and 24 h time points and centrifuged at 3,000 or 4000 rpm for 2 to 10 min. The plasma solutions are collected, and stored at −20° C. or −70° C. until analyzed by LC/MS/MS as described above.

T1 sequence (O60674 whole entry): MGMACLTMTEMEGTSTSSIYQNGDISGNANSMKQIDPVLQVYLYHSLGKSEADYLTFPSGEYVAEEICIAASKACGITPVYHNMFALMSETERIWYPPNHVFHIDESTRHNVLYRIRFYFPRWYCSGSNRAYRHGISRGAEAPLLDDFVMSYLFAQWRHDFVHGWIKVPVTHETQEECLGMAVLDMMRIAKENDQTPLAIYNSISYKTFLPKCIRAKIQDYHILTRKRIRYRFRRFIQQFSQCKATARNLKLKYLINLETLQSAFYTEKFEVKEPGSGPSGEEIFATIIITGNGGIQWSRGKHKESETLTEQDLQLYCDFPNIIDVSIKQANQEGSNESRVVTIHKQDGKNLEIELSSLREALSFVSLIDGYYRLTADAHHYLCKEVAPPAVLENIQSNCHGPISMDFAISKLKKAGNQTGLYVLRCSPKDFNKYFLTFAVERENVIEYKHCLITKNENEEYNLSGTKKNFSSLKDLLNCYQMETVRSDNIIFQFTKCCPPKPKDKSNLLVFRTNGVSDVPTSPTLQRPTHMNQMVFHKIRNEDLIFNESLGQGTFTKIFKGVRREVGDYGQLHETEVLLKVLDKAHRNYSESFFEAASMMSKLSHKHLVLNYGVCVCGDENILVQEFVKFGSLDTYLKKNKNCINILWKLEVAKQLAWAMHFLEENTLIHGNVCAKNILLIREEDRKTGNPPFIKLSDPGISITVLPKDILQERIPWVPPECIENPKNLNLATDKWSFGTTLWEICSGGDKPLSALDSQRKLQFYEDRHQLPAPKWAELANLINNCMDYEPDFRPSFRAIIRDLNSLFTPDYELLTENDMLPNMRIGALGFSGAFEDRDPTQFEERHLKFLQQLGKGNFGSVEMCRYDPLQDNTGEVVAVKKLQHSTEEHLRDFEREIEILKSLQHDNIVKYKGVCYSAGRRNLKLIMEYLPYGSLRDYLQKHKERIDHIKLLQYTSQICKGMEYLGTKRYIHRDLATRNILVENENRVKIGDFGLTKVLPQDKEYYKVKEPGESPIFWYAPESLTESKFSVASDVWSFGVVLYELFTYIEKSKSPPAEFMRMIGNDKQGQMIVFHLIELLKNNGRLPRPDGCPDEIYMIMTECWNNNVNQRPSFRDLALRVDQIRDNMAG
T2 sequence (P23458 whole entry): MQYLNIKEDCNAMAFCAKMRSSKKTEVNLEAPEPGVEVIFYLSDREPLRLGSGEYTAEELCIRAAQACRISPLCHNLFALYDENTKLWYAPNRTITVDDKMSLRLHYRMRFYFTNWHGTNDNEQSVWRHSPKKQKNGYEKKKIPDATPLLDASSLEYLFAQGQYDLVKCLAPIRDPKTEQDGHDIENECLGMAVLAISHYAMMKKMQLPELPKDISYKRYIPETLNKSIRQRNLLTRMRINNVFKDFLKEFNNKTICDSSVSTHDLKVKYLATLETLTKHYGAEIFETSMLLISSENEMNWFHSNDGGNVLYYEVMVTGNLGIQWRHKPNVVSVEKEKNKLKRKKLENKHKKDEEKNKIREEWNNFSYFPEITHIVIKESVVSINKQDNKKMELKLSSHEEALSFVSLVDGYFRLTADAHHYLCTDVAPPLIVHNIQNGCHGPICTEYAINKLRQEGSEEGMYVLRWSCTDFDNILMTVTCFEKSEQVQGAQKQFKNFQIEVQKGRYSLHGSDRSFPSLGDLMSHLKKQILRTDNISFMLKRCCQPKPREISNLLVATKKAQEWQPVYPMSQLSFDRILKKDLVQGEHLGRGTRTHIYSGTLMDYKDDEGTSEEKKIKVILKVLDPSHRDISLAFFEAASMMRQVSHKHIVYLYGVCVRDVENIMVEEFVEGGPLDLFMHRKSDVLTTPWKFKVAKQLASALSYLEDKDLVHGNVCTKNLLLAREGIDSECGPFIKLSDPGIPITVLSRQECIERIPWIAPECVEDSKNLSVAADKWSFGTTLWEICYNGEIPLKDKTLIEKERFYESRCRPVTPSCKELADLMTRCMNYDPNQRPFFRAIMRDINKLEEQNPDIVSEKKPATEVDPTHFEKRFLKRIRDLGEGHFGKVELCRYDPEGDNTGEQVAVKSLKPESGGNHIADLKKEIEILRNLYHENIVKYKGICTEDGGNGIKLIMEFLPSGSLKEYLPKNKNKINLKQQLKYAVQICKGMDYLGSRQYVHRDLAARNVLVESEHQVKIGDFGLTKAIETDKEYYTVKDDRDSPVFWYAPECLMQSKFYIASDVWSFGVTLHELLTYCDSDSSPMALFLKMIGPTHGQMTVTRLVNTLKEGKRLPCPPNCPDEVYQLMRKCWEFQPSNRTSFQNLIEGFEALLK

SMILES	IC50 (JAK2 (h))	half-life [1]	CLint scaled [1]	IC50 (JAK1 (h))	half-life [2]	CLint scaled [2]	clearance (CL) [3]	F [3]	AUC(0-t) [3]	half-life [3]	Vd [3]
Cc1cc(Nc2ncc(Cl)c(NC3CCN(c4ccc(C#N)cn4)CC3)n2)nn1C [Ex. 2]	3 nM	17.7 min	140 mL/min/kg	0.6 nM	36.3 min	47.9 mL/min/kg	–	–	–	–	–
Cc1nn(C)cc1Nc1ncc(Cl)c(N(C)C2CCN(c3ccc(C#N)cn3)CC2)n1 [Ex. 14, 6-(4-((5-chloro-2-((1,3-dimethyl-1H-pyrazol-4-yl)amino)pyrimidin-4-yl) (methyl)amino)piperidin-1-yl)nicotinonitrile]	175 nM	1.71 min	1450 mL/min/kg	1 nM	7.99 min	217 mL/min/kg	61.2 mL/min/kg	107.1%	273 ng·h/mL	29.4 min	1.19 L/kg
Cn1nc(Nc2ncc(Cl)c(NC3CCN(c4ccc(C#N)cn4)CC3)n2)cc1C(C)(C)O [Ex. 26, 6-(4-((5-chloro-2-((5-(2-hydroxypropan-2-yl)-1-methyl-1H-pyrazol-3-yl)amino)pyrimidin-4-yl)amino)piperidin-1-yl)nicotinonitrile]	0.8 nM	–	–	1 nM	–	–	–	–	–	–	–
Cc1cc(Nc2ncc(Cl)c(NC3CCN(c4ccc(C#N)cn4)CC3)n2)n[nH]1 [Ex. 3]	2 nM	74.5 min	33.3 mL/min/kg	< 0.3 nM	163 min	10.7 mL/min/kg	17.2 mL/min/kg	112.01%	1060 ng·h/mL	56.4 min	0.94 L/kg
Cc1cnc(Nc2cnn(C)c2)nc1N(C)C1CCN(c2ccc(C#N)cn2)CC1 [Ex. 6, 6-(4-(methyl(5-methyl-2-((1-methyl-1H-pyrazol-4-yl)amino)pyrimidin-4-yl)amino)piperidin-1-yl)nicotinonitrile]	–	4.3 min	577 mL/min/kg	2 nM	15.6 min	111 mL/min/kg	20.2 mL/min/kg	22.2%	1360 ng·h/mL	35.9 min	0.56 L/kg
CN(c1nc(Nc2cnn(C)c2)ncc1Cl)C1CCN(c2ccc(C#N)cn2)C1 (centres unmarked) [Ex. 7, 6-(3-((5-chloro-2-((1-methyl-1H-pyrazol-4-yl)amino)pyrimidin-4-yl) (methyl)amino)pyrrolidin-1-yl)nicotinonitrile]	–	9.2 min	270 mL/min/kg	22 nM	14.5 min	120 mL/min/kg	37.7 mL/min/kg	67.1%	445 ng·h/mL	20.4 min	0.86 L/kg
CCC1CN(c2ccc(C#N)nn2)CCC1Nc1nc(Nc2cc(C)n(C)n2)ncc1Cl (centres unmarked) [Ex. 15, 6-(4-((5-chloro-2-((1,5-dimethyl-1H-pyrazol-3-yl)amino)pyrimidin-4-yl)amino)-3-ethylpiperidin-1-yl)pyridazine-3-carbonitrile]	0.6 nM	35 min	71 mL/min/kg	0.6 nM	23.3 min	74.5 mL/min/kg	8.67 mL/min/kg	92.2%	1930 ng·h/mL	45.6 min	0.48 L/kg
Cn1cc2ccc(Nc3ncc(Cl)c(NC4CCN(c5ccc(C#N)nn5)CC4)n3)cc2n1 [Ex. 25]	–	20.8 min	120 mL/min/kg	< 0.3 nM	25.7 min	67.6 mL/min/kg	14 mL/min/kg	62.8%	1220 ng·h/mL	28.2 min	0.33 L/kg
